Experimental data from patent US20100311714A1, “1H-IMIDAZO[4,5-c]QUINOLINONE COMPOUNDS” (priority 2009, published 2010).
Where two headings read alike, the source gives them in different places.

How the values were obtained:
[1] = test system: S6 Ribosomal Protein phosphorylation Ser235/236 in TSC1 null mouse embryo fibroblast (MEF) cells; assay: Reverse protein array, S6 Ribosomal Protein phosphorylation in TSC1 null MEF cells; assay type: cell-based; conditions: 1 h, TSC1-/- MEFs, 60 minutes
Outline: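 Phospho-S6 (Ser235/236) was quantified by reverse protein array of cell lysates with a phospho-specific primary antibody. […]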

[2] = test system: PKB Ser473 phosphorylation in Rat1-myr-HA-p110 beta cells; assay: Reverse protein array, PKB Ser473 phosphorylation in Rat1-myr-HA-p110 beta cells; assay type: cell-based; conditions: Rattus norvegicus, 0.5 h, 30 minutes compound incubation, read-out: p-PKB/IC50_beta

Row | IC50 [2] | Compound | IC50 ([1]; read-out: p-S6 IC50) | IC50 ([1]; read-out: p-S6)
1 | 66.7 nM | CCOc1cc(-c2ccc3ncc4c(c3c2)n(-c2ccc(OCCOC)nc2C)c(=O)n4C)cnc1COC [Example 22.1, 8-(5-Ethoxy-6-methoxymethyl-pyridin-3-yl)-1-[6-(2-methoxy-ethoxy)-2-methyl-pyridin-3-yl]-3-methyl-1,3-dihydro-imidazo[4,5-c]quinolin-2-one] | 7 nM | 
2 | 31.9 nM | CNc1ncc(-c2ccc3ncc4c(c3c2)n(-c2ccc(N3CC(O)C3)nc2C)c(=O)n4C)cc1F [Example 29.3, 8-(5-Fluoro-6-methylamino-pyridin-3-yl)-1-[6-(3-hydroxy-azetidin-1-yl)-2-methyl-pyridin-3-yl]-3-methyl-1,3-dihydro-imidazo[4,5-c]quinolin-2-one] | 7.8 nM | 
3 | 11 nM | CNc1ncc(-c2ccc3ncc4c(c3c2)n(-c2ccc(N3CC[C@H](O)C3)nc2C)c(=O)n4C)cc1C(F)(F)F [Example 32.5, 1-[6-((S)-3-Hydroxy-pyrrolidin-1-yl)-2-methyl-pyridin-3-yl]-3-methyl-8-(6-methylamino-5-trifluoromethyl-pyridin-3-yl)-1,3-dihydro-imidazo[4,5-c]quinolin-2-one] | 1 nM | 
4 | 53.8 nM | CCOc1ncc(-c2ccc3ncc4c(c3c2)n(-c2cccnc2C)c(=O)n4C)cn1 [Example 2.5, 8-(2-Ethoxy-pyrimidin-5-yl)-3-methyl-1-(2-methyl-pyridin-3-yl)-1,3-dihydro-imidazo[4,5-c]quinolin-2-one] |  | 237 nM
5 | 259 nM | Cc1cccnc1-n1c(=O)n(C)c2cnc3ccc(-c4ccc(C(N)=O)cc4)cc3c21 [Example 3.3, 4-[3-Methyl-1-(3-methyl-pyridin-2-yl)-2-oxo-2,3-dihydro-1H-imidazo[4,5-c]quinolin-8-yl]-benzamide] |  | 297 nM
6 | 20.6 nM | COc1nc(N2CCNCC2)ccc1-n1c(=O)n(C)c2cnc3ccc(-c4cnc(N)c(C(F)(F)F)c4)cc3c21 [Example 9.2, 8-(6-Amino-5-trifluoromethyl-pyridin-3-yl)-1-(2-methoxy-6-piperazin-1-yl-pyridin-3-yl)-3-methyl-1,3-dihydro-imidazo[4,5-c]quinolin-2-one] |  | 3.35 nM
7 | 172 nM | Cc1cccnc1-n1c(=O)n(C)c2cnc3ccc(-c4cnc(N)c(C(F)(F)F)c4)cc3c21 [Example 3.12, 8-(6-Amino-5-trifluoromethyl-pyridin-3-yl)-3-methyl-1-(3-methyl-pyridin-2-yl)-1,3-dihydro-imidazo[4,5-c]quinolin-2-one] |  | 13.2 nM
8 | 19.8 nM | COc1ccc(-c2ccc3ncc4c(c3c2)n(-c2cccnc2C)c(=O)n4C)cn1 [Example 2.12, 8-(6-Methoxy-pyridin-3-yl)-3-methyl-1-(2-methyl-pyridin-3-yl)-1,3-dihydro-imidazo[4,5-c]quinolin-2-one] |  | 18 nM
9 | < 4.57 nM | COc1ncccc1-n1c(=O)n(C)c2cnc3ccc(-c4cnc5[nH]ccc5c4)cc3c21 [Example 1.2, 1-(2-Methoxy-pyridin-3-yl)-3-methyl-8-(1H-pyrrolo[2,3-b]pyridin-5-yl)-1,3-dihydro-imidazo[4,5-c]quinolin-2-one] |  | 2.61 nM
